Data as given in ChEMBL document CHEMBL1201862, “PubChem BioAssay data set” (2004).
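48-hour exposure; five concentrations; linearly interpolated endpoints. Here, GI50 denotes the concentration required for 50% inhibition of growth.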 Calls of active or inactive are those of the source. Rule as the data show it: active = GI50 up to about 1.1 µM and inactive = higher.

How the values were obtained:
Assay in all cases: NCI-60 cell line screen, 48 h
A549 = test system: A549
ACHN = test system: ACHN
COLO 205 = test system: COLO 205
HOP-62 = test system: HOP-62
HOP-92 = test system: HOP-92
IGROV-1 = test system: IGROV-1
KM12 = test system: KM12
MOLT-4 = test system: MOLT-4
SK-OV-3 = test system: SK-OV-3
SN12C = test system: SN12C
SR = test system: SR
SW-620 = test system: SW-620
U-251 = test system: U-251
UACC-257 = test system: UACC-257
HCT-116 = test system: HCT-116
M14 = test system: M14
UO-31 = test system: UO-31

Measured: GI50

CC(=O)O/N=C/c1cc2c(cc1Br)OCO2
inactive: A549 > 349 µM | ACHN > 349 µM | COLO 205 > 349 µM | HOP-62 > 349 µM | HOP-92 > 349 µM | IGROV-1 > 349 µM | KM12 > 349 µM | MOLT-4 > 349 µM | SK-OV-3 > 349 µM | SN12C > 349 µM | SR > 349 µM | SW-620 > 349 µM | U-251 > 34.9 µM | UACC-257 > 349 µM

Cc1ccc(NC(=O)/C(C#N)=C/c2ccccc2)c(C)c1
inactive: A549 > 100 µM | ACHN > 100 µM | COLO 205 > 100 µM | HCT-116 > 100 µM | HOP-62 > 100 µM | HOP-92 > 100 µM | IGROV-1 > 100 µM | KM12 > 100 µM | M14 > 100 µM | MOLT-4 > 100 µM | SK-OV-3 > 100 µM | SN12C > 100 µM | SR > 100 µM | SW-620 > 100 µM | U-251 > 100 µM | UACC-257 > 100 µM | UO-31 > 100 µM

N#C/C(=N\c1ccccc1N(C(=O)c1ccccc1)C(=O)c1ccccc1)c1ccccc1
inactive: A549 9.04 µM | ACHN > 60.5 µM | COLO 205 > 42 µM | HCT-116 6.43 µM | HOP-62 > 30.7 µM | HOP-92 24.7 µM | IGROV-1 6.67 µM | KM12 3.62 µM | M14 > 100 µM | MOLT-4 3.82 µM | SK-OV-3 > 100 µM | SN12C > 71.8 µM | SR 2.4 µM | SW-620 6.52 µM | U-251 10.3 µM | UACC-257 > 100 µM | UO-31 > 55.5 µM

COc1ccc2c(c1)[n+]([O-])c(C(=O)C/C(=N\NC(=O)C[N+](C)(C)C)C(=O)Nc1cc(Cl)ccc1Cl)c(C)[n+]2[O-]
inactive: A549 > 100 µM | ACHN > 100 µM | COLO 205 > 100 µM | HCT-116 > 100 µM | HOP-62 > 100 µM | HOP-92 > 100 µM | IGROV-1 > 100 µM | KM12 > 100 µM | M14 > 100 µM | MOLT-4 > 100 µM | SN12C > 100 µM | SR 43.3 µM | SW-620 > 100 µM | U-251 > 100 µM | UACC-257 > 100 µM | UO-31 > 100 µM

O=C(O)CCSCCCN1C(=O)c2ccccc2C1=O
inactive: A549 > 100 µM | ACHN > 100 µM | COLO 205 > 100 µM | HCT-116 > 100 µM | HOP-92 > 100 µM | IGROV-1 > 100 µM | KM12 > 100 µM | MOLT-4 > 100 µM | SK-OV-3 > 100 µM | SN12C > 100 µM | SR > 100 µM | SW-620 > 100 µM | U-251 > 100 µM | UACC-257 > 100 µM | UO-31 > 100 µM

CCCCCCCC(=O)OCC(COC(=O)C(C)(C)C)OC(=O)Cc1ccccc1 (stereo not given)
inactive: A549 > 100 µM | ACHN > 100 µM | COLO 205 > 100 µM | HCT-116 > 100 µM | HOP-62 > 100 µM | HOP-92 > 100 µM | IGROV-1 > 100 µM | M14 > 100 µM | MOLT-4 > 100 µM | SK-OV-3 > 100 µM | SN12C > 100 µM | SW-620 > 100 µM | U-251 > 100 µM | UO-31 > 100 µM

Cc1cc(Cl)ccc1NC(=O)C1C(=O)C(=O)N(c2ccc(Cl)cc2C)C1=O (stereo not given)
inactive: A549 > 100 µM | ACHN > 100 µM | COLO 205 > 100 µM | HCT-116 43.8 µM | HOP-62 > 100 µM | HOP-92 14.9 µM | IGROV-1 > 100 µM | M14 31.2 µM | MOLT-4 24.7 µM | SK-OV-3 > 100 µM | SN12C > 100 µM | SW-620 > 100 µM | U-251 57.3 µM | UACC-257 > 100 µM | UO-31 75.7 µM

CCCCCCCC/C=C\CCCCCCCC(=O)NCCN(CCN)C(=O)CCCCCCC/C=C\CCCCCCCC
inactive: A549 > 100 µM | ACHN > 100 µM | COLO 205 > 100 µM | HCT-116 > 100 µM | HOP-62 > 100 µM | HOP-92 > 100 µM | IGROV-1 > 100 µM | M14 > 100 µM | MOLT-4 > 100 µM | SK-OV-3 > 100 µM | SN12C > 100 µM | SR > 100 µM | SW-620 > 100 µM | U-251 > 100 µM | UACC-257 > 100 µM | UO-31 > 100 µM

CCCCCCCCOCC(O)COC(C)C (stereo not given)
inactive: A549 41.6 µM | ACHN 97.9 µM | COLO 205 40 µM | HCT-116 53.1 µM | HOP-62 91.8 µM | HOP-92 13.7 µM | IGROV-1 > 100 µM | M14 56.4 µM | MOLT-4 17 µM | SK-OV-3 > 100 µM | SN12C 24.2 µM | SR 17 µM | SW-620 59.8 µM | U-251 89.3 µM | UACC-257 27.9 µM | UO-31 41.3 µM

CCC12CCCNC1c1c(n(C)c3ccccc13)C(C(=O)OC)C2 (stereo not given)
inactive: A549 93.3 µM | ACHN 79.4 µM | COLO 205 38.8 µM | HCT-116 37.6 µM | HOP-62 93.3 µM | HOP-92 16.3 µM | IGROV-1 61.4 µM | KM12 58.3 µM | MOLT-4 68.7 µM | SK-OV-3 46.9 µM | SN12C 78.3 µM | SR 49.8 µM | SW-620 68.1 µM | U-251 61.7 µM | UACC-257 59.2 µM

CC(=O)O[C@H]1CC[C@@]2(C)C(=CC[C@@H]3C2CC[C@]2(C)Nc4c(cnn4-c4ccccc4)CC32)C1 (stereo not given in full)
inactive: A549 23.7 µM | ACHN 13.8 µM | HCT-116 24.4 µM | HOP-62 12.4 µM | IGROV-1 20.6 µM | KM12 11.9 µM | M14 46.1 µM | MOLT-4 2.07 µM | SK-OV-3 27.8 µM | SW-620 19.4 µM | U-251 4.98 µM | UACC-257 12.4 µM | UO-31 27.1 µM

COc1c2c(c3c(c1C1OC(C)[C@@H](C)O1)CC(C)(C)O3)C(=O)c1ccccc1C2=O (stereo not given in full)
inactive: A549 73.3 µM | ACHN 40.5 µM | COLO 205 35.1 µM | HCT-116 42.7 µM | HOP-62 > 100 µM | HOP-92 16.9 µM | IGROV-1 > 100 µM | KM12 45.7 µM | M14 65 µM | SK-OV-3 13.9 µM | SN12C 35.6 µM | SR 22.5 µM | SW-620 23.9 µM | U-251 36.6 µM | UACC-257 > 100 µM | UO-31 36.7 µM

O=C(O)c1c2c(cc3c(=O)cc(-c4ccccc4)oc13)CCCC2
inactive: A549 > 100 µM | ACHN > 100 µM | COLO 205 > 100 µM | HCT-116 > 100 µM | HOP-62 > 100 µM | HOP-92 > 100 µM | IGROV-1 > 100 µM | KM12 > 100 µM | M14 > 100 µM | MOLT-4 > 100 µM | SK-OV-3 > 100 µM | SN12C > 100 µM | SW-620 > 100 µM | U-251 > 100 µM | UACC-257 > 100 µM | UO-31 > 100 µM
